Results published in PubChem BioAssay (NCI).
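Cultured in 96-well plates, cells were exposed to test compound for 48 hours across five concentrations. The concentration for 50% growth inhibition is given as GI50. Definition used: TGI = concentration required for complete inhibition of growth.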

Columns and labels:
Assay in all cases: growth of human tumour cells (NCI), 48 h
HCT-116 colon = test system: HCT-116 colon
HS 578T breast = test system: HS 578T breast
HT29 colon = test system: HT29 colon
T-47D breast = test system: T-47D breast
A549 NSCLC = test system: A549 NSCLC
SF-268 CNS = test system: SF-268 CNS
ACHN renal = test system: ACHN renal
MOLT-4 leukemia = test system: MOLT-4 leukemia
SK-MEL-5 melanoma = test system: SK-MEL-5 melanoma
HCC-2998 colon = test system: HCC-2998 colon
HL-60(TB) leukemia = test system: HL-60(TB) leukemia
NCI-H23 lung = test system: NCI-H23 lung
UACC-62 melanoma = test system: UACC-62 melanoma
M14 melanoma = test system: M14 melanoma
TK-10 renal = test system: TK-10 renal
KM12 colon = test system: KM12 colon
K-562 leukemia = test system: K-562 leukemia
LOX IMVI melanoma = test system: LOX IMVI melanoma
OVCAR-4 ovarian = test system: OVCAR-4 ovarian
HOP-92 NSCLC = test system: HOP-92 NSCLC
RPMI-8226 leukemia = test system: RPMI-8226 leukemia
BT-549 breast = test system: BT-549 breast
EKVX NSCLC = test system: EKVX NSCLC
NCI-H522 lung = test system: NCI-H522 lung
SK-MEL-28 melanoma = test system: SK-MEL-28 melanoma
IGROV1 ovarian = test system: IGROV1 ovarian
SR leukemia = test system: SR leukemia
OVCAR-5 ovarian = test system: OVCAR-5 ovarian
SF-539 CNS = test system: SF-539 CNS
SW-620 colon = test system: SW-620 colon
U251 CNS = test system: U251 CNS
DU-145 prostate = test system: DU-145 prostate
SK-MEL-2 melanoma = test system: SK-MEL-2 melanoma
NCI-H460 lung = test system: NCI-H460 lung
SNB-75 CNS = test system: SNB-75 CNS
HOP-62 NSCLC = test system: HOP-62 NSCLC
A498 renal = test system: A498 renal
HCT-15 colon = test system: HCT-15 colon
OVCAR-3 ovarian = test system: OVCAR-3 ovarian
MCF7 breast = test system: MCF7 breast
SF-295 CNS = test system: SF-295 CNS
SK-OV-3 ovarian = test system: SK-OV-3 ovarian
CAKI-1 renal = test system: CAKI-1 renal
MDA-MB-231 breast = test system: MDA-MB-231 breast
OVCAR-8 ovarian = test system: OVCAR-8 ovarian
MALME-3M melanoma = test system: MALME-3M melanoma
PC-3 prostate = test system: PC-3 prostate
NCI-H226 lung = test system: NCI-H226 lung
MDA-MB-435 = test system: MDA-MB-435
RXF 393 renal = test system: RXF 393 renal
UACC-257 melanoma = test system: UACC-257 melanoma
NCI/ADR-RES ovarian = test system: NCI/ADR-RES ovarian
UO-31 renal = test system: UO-31 renal
COLO 205 colon = test system: COLO 205 colon
786-0 renal = test system: 786-0 renal
SN12C renal = test system: SN12C renal
CCRF-CEM leukemia = test system: CCRF-CEM leukemia
SNB-19 CNS = test system: SNB-19 CNS

With CCN1CCN(Cc2ccc(NC(=O)c3nc4ccc5[nH]ncc5c4c4c3CCCC4)cc2C(F)(F)F)CC1 the GI50 (HCT-116 colon) was 870 nM, the TGI (HCT-116 colon) was 1700 nM and the GI50 (HS 578T breast) was 969 nM. The TGI (HS 578T breast) was 2130 nM, the GI50 (HT29 colon) was 923 nM and the TGI (HT29 colon) was 1910 nM. The GI50 (T-47D breast) was 854 nM, the TGI (T-47D breast) was 1920 nM and the GI50 (A549 NSCLC) was 1320 nM. It also gave a TGI (A549 NSCLC) of 3800 nM, a GI50 (SF-268 CNS) of 2300 nM and a TGI (SF-268 CNS) of 9200 nM. For the same compound, the GI50 (ACHN renal) was 861 nM, the TGI (ACHN renal) was 1560 nM and the GI50 (MOLT-4 leukemia) was 1010 nM. It also gave a TGI (MOLT-4 leukemia) of 2280 nM, a GI50 (SK-MEL-5 melanoma) of 903 nM and a TGI (SK-MEL-5 melanoma) of 1630 nM. The GI50 (HCC-2998 colon) was 816 nM, the TGI (HCC-2998 colon) was 1590 nM and the GI50 (HL-60(TB) leukemia) was 983 nM. It also gave a TGI (HL-60(TB) leukemia) of 1990 nM, a GI50 (NCI-H23 lung) of 1760 nM and a TGI (NCI-H23 lung) of 7210 nM. The GI50 (UACC-62 melanoma) was 922 nM, the TGI (UACC-62 melanoma) was 1880 nM and the GI50 (M14 melanoma) was 885 nM. The TGI (M14 melanoma) was 1800 nM, the GI50 (TK-10 renal) was 1830 nM and the TGI (TK-10 renal) was 6790 nM. It also gave a GI50 (KM12 colon) of 988 nM, a TGI (KM12 colon) of 1940 nM and a GI50 (K-562 leukemia) of 827 nM. For the same compound, the TGI (K-562 leukemia) was 2120 nM, the GI50 (LOX IMVI melanoma) was 836 nM and the TGI (LOX IMVI melanoma) was 1550 nM. The GI50 (OVCAR-4 ovarian) was 1070 nM, the TGI (OVCAR-4 ovarian) was 2630 nM and the GI50 (HOP-92 NSCLC) was 1610 nM. It also gave a TGI (HOP-92 NSCLC) of 7650 nM, a GI50 (RPMI-8226 leukemia) of 1070 nM and a TGI (RPMI-8226 leukemia) of 2610 nM. It also gave a GI50 (BT-549 breast) of 6330 nM, a TGI (BT-549 breast) of 13000 nM and a GI50 (EKVX NSCLC) of 2090 nM. For the same compound, the TGI (EKVX NSCLC) was 8810 nM, the GI50 (NCI-H522 lung) was 882 nM and the TGI (NCI-H522 lung) was 1850 nM. For the same compound, the GI50 (SK-MEL-28 melanoma) was 899 nM, the TGI (SK-MEL-28 melanoma) was 1650 nM and the GI50 (IGROV1 ovarian) was 892 nM. It also gave a TGI (IGROV1 ovarian) of 1720 nM, a GI50 (SR leukemia) of 1190 nM and a TGI (SR leukemia) of 2650 nM. For the same compound, the GI50 (OVCAR-5 ovarian) was 1480 nM, the TGI (OVCAR-5 ovarian) was 5460 nM and the GI50 (SF-539 CNS) was 870 nM. For the same compound, the TGI (SF-539 CNS) was 1600 nM, the GI50 (SW-620 colon) was 969 nM and the TGI (SW-620 colon) was 1890 nM. It also gave a GI50 (U251 CNS) of 883 nM, a TGI (U251 CNS) of 1630 nM and a GI50 (DU-145 prostate) of 1250 nM. It also gave a TGI (DU-145 prostate) of 2980 nM, a GI50 (SK-MEL-2 melanoma) of 850 nM and a TGI (SK-MEL-2 melanoma) of 1900 nM. It also gave a GI50 (NCI-H460 lung) of 935 nM, a TGI (NCI-H460 lung) of 1780 nM and a GI50 (SNB-75 CNS) of 1060 nM. For the same compound, the TGI (SNB-75 CNS) was 7170 nM, the GI50 (HOP-62 NSCLC) was 815 nM and the TGI (HOP-62 NSCLC) was 1650 nM. It also gave a GI50 (A498 renal) of 6890 nM, a TGI (A498 renal) of 14400 nM and a GI50 (HCT-15 colon) of 950 nM. It also gave a TGI (HCT-15 colon) of 1960 nM, a GI50 (OVCAR-3 ovarian) of 997 nM and a TGI (OVCAR-3 ovarian) of 1920 nM. For the same compound, the GI50 (MCF7 breast) was 884 nM, the TGI (MCF7 breast) was 1840 nM and the GI50 (SF-295 CNS) was 888 nM. For the same compound, the TGI (SF-295 CNS) was 1800 nM, the GI50 (SK-OV-3 ovarian) was 7250 nM and the TGI (SK-OV-3 ovarian) was 14200 nM. For the same compound, the GI50 (CAKI-1 renal) was 976 nM, the TGI (CAKI-1 renal) was 2420 nM and the GI50 (MDA-MB-231 breast) was 879 nM. The TGI (MDA-MB-231 breast) was 1660 nM, the GI50 (OVCAR-8 ovarian) was 1010 nM and the TGI (OVCAR-8 ovarian) was 2050 nM. It also gave a GI50 (MALME-3M melanoma) of 827 nM, a TGI (MALME-3M melanoma) of 1590 nM and a GI50 (PC-3 prostate) of 1300 nM. It also gave a TGI (PC-3 prostate) of 4200 nM, a GI50 (NCI-H226 lung) of 2980 nM and a TGI (NCI-H226 lung) of 13600 nM. It also gave a GI50 (MDA-MB-435) of 918 nM, a TGI (MDA-MB-435) of 1670 nM and a GI50 (RXF 393 renal) of 738 nM. The TGI (RXF 393 renal) was 1430 nM, the GI50 (UACC-257 melanoma) was 938 nM and the TGI (UACC-257 melanoma) was 1840 nM. For the same compound, the GI50 (NCI/ADR-RES ovarian) was 1080 nM, the TGI (NCI/ADR-RES ovarian) was 2820 nM and the GI50 (UO-31 renal) was 729 nM. For the same compound, the TGI (UO-31 renal) was 1400 nM, the GI50 (COLO 205 colon) was 861 nM and the TGI (COLO 205 colon) was 1680 nM. For the same compound, the GI50 (786-0 renal) was 886 nM, the TGI (786-0 renal) was 1650 nM and the GI50 (SN12C renal) was 865 nM. For the same compound, the TGI (SN12C renal) was 1630 nM, the GI50 (CCRF-CEM leukemia) was 1150 nM and the TGI (CCRF-CEM leukemia) was 3260 nM. For the same compound, the GI50 (SNB-19 CNS) was 931 nM and the TGI (SNB-19 CNS) was 2010 nM.
